{"source": "patent EP0494777A1", "about": "“(S)-11-Hydroxy-10-methyl aporphine and pharmaceutical compositions containing it” (BRITISH TECHNOLOGY GROUP LTD, priority 1991, dated 1992)", "key": {"guinea pig ileum": {"target": "T1, guinea pig ileum (Cavia porcellus, UniProt A0A286Y074)", "T1 sequence (A0A286Y074 1-421)": "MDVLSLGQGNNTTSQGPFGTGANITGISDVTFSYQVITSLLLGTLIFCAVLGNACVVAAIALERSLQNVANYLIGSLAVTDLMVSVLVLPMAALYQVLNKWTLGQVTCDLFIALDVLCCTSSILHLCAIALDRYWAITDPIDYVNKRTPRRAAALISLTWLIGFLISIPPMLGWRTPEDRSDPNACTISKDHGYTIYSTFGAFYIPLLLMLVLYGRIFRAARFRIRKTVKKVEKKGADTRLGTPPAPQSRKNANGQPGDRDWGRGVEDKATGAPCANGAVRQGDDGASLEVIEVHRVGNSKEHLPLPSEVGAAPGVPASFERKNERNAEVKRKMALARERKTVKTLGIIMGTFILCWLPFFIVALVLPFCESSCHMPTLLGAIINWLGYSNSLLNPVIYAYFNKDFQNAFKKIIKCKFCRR", "assay": "Single shock stimulation of guinea pig ileum: inhibition of longitudinal muscle contractions, or antagonism of the inhibitory action of 8-OH DPAT", "conditions": "for washings needed to return responses to induced electrical stimulation to control levels: after inhibition of contractions", "description": "Guinea pigs were anaesthetized with 35 mg of pentobarbital Na, administered i.p. and then sacrificed. Two centimeters of ileum, 10 cm from the cecum, was placed in Krebs-Ringer solution, and longitudinal muscle contractions were measured using a Stateham GT-03 force transducer. Contractions were recorded using a Beckman R-611 recorder."}, "5-HT1A sites": {"target": "T2, 5-HT1A sites (Rattus norvegicus, UniProt P19327)", "T2 construct": "5% (w/v) homogenized rat cortex; from tissue; host or cells: rat cortex membranes", "T2 sequence (P19327 1-422)": "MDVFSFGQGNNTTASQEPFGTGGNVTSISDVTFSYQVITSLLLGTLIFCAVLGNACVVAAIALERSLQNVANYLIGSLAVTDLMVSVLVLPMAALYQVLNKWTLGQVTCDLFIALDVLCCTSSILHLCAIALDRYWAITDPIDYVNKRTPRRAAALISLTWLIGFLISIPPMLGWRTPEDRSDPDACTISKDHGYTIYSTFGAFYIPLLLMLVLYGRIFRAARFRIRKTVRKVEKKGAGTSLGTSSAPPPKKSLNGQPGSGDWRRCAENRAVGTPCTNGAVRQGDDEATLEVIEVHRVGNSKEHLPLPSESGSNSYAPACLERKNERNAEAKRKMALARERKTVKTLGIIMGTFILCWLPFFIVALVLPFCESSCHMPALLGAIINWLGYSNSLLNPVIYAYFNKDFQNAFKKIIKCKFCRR", "assay": "Radioligand binding vs. [³H]8-OH DPAT in rat cortex membranes", "description": "Binding studies to determine the affinity of both the (R) and (S) enantiomer for 5-HT1A sites were conducted as previously described by Cannon et al., ibid. Rat cortex was homogenized in ice cold solution, centrifuged to isolate the membranes, and then washed. […] Non-specific binding was defined as binding remaining in the presence of 10 µM of 5-HT. […] The results are presented below in the Table together with those obtained in the studies using guinea pig ilea."}}, "data": [{"smiles": "CN1C2CCC1CC(OC(=O)C(CO)c1ccccc1)C2", "note": "(racemic) [atropine sulphate, reference compound]", "values": [{"measurement": "effect on contractions induced by transmural single shock stimulation", "setting": "guinea pig ileum", "value": "inhibited"}]}, {"smiles": "CCCN(CCC)C1CCc2cccc(O)c2C1", "note": "(stereo not drawn) [8-OH DPAT, 8-hydroxy-2-di-n-propylaminotetralin, reference compound]", "values": [{"measurement": "washings needed to return responses to induced electrical stimulation to control levels", "setting": "guinea pig ileum", "value": "Two or three"}, {"measurement": "inhibition at 0.06 µM", "setting": "guinea pig ileum; read-out: maximal inhibition of contractions induced by transmural stimulation", "value": "~35", "unit": "%"}]}, {"smiles": "Cc1ccc2c(c1O)-c1cccc3c1[C@@H](C2)N(C)CC3", "note": "[(R), (R)-11-hydroxy-10-methylaporphine, reference compound]", "values": [{"measurement": "Ki", "setting": "5-HT1A sites", "value": 3.1, "unit": "nM"}, {"measurement": "washings needed to return responses to induced electrical stimulation to control levels", "setting": "guinea pig ileum", "value": "Two or three"}, {"measurement": "EC50", "setting": "guinea pig ileum; read-out: Single Shock stimulation of guinea pig ileum ED50 for inhibition of contractions, transmural single shock stimulation (0.1 Hz)", "value": 50, "unit": "nM"}, {"measurement": "ED50 for antagonism of inhibition of contraction by 8-OH DPAT", "setting": "guinea pig ileum; single shock stimulation of guinea pig ileum, concentration of 8-OH-DPAT 0.06 μM", "value": "inactive"}]}, {"smiles": "Cc1ccc2c(c1O)-c1cccc3c1[C@H](C2)N(C)CC3.Cl", "note": "[(S), (S)-11-Hydroxy-10-methylaporphine hydrochloride]", "values": [{"measurement": "Ki", "setting": "5-HT1A sites", "value": 39, "unit": "nM"}, {"measurement": "effect on ileum stimulating properties of nicotine", "setting": "guinea pig ileum; 1 µM", "value": "did not alter"}, {"measurement": "effect on ileum stimulating properties of potassium chloride", "setting": "guinea pig ileum; 1 µM", "value": "did not alter"}, {"measurement": "effect on resting tone of the ileum", "setting": "guinea pig ileum; 1 µM", "value": "did not alter"}, {"measurement": "IC50", "setting": "guinea pig ileum; read-out: ED50 for antagonism of inhibition of contraction by 8-OH DPAT, single shock stimulation of guinea pig ileum, concentration of 8-OH-DPAT 0.06 μM", "value": 30, "unit": "nM"}, {"measurement": "antagonism of inhibition of contractions by the (R)-enantiomer", "setting": "guinea pig ileum; single shock stimulation of cholinergic neurons", "value": "antagonized"}, {"measurement": "Single Shock stimulation of guinea pig ileum ED50 for inhibition of contractions", "setting": "guinea pig ileum; transmural single shock stimulation (0.1 Hz)", "value": "inactive"}, {"measurement": "duration of repeated washings required to re-establish sensitivity of the preparation to the (R)-enantiomer or 8-OH DPAT", "setting": "guinea pig ileum; washout", "value": "2 to 3", "unit": "h"}]}]}
